{"source": "patent CN116919972A", "about": "“去氧胆酸在制备抗水生病毒感染的药物或添加剂中的应用” (priority 2023, dated 2023)", "key": {"[1]": {"system": "SVCV (鲤春病毒血症病毒)", "assay": "Inhibition of SVCV-G gene expression in EPC cells (RT-qPCR)", "type": "cell-based", "conditions": "12 h pretreatment, 0.1 MOI SVCV, 28 °C, 24 h"}, "[2]": {"system": "SVCV-G protein (SVCV-G蛋白)", "assay": "Inhibition of SVCV-G protein expression in EPC cells (western blot)", "type": "cell-based", "conditions": "1-50 μM, increasing concentration, 0.1 MOI SVCV, 28 °C, 24 h"}, "[3]": {"system": "SVCV (鲤春病毒血症病毒)", "assay": "Inhibition of SVCV virus particle formation (plaque assay on EPC cell supernatant)", "type": "cell-based", "conditions": "50 μM, EPC cells, 0.1 MOI SVCV, 28 °C, 24 h; control 10^6.11 PFU/mL"}, "[4]": {"system": "SVCV (鲤春病毒血症病毒)", "assay": "Survival of SVCV-infected zebrafish fed deoxycholic acid", "type": "in vivo", "conditions": "0.2 mg/fish per feeding, 7 days before injection of 10^4 PFU SVCV, 14 d observation, 16 °C; control 23.33%"}, "[5]": {"system": "SVCV (鲤春病毒血症病毒)", "assay": "Viral load in organs of SVCV-infected zebrafish (absolute quantification of SVCV-G)", "type": "in vivo", "conditions": "5 d after SVCV infection, DCA 0.2 mg/fish fed"}, "[6]": {"system": "SVCV (鲤春病毒血症病毒)", "assay": "Histopathology (H&E) of organs of SVCV-infected zebrafish", "type": "in vivo", "conditions": "zebrafish liver, intestine, kidney, 5 d after SVCV infection, versus SVCV infection group"}, "[7]": {"system": "zebrafish (斑马鱼)", "assay": "Toxicity to zebrafish by organ histology (H&E), uninfected", "type": "in vivo", "conditions": "DCA-fed (0.2 mg/fish), liver, intestine, kidney histology"}, "[8]": {"system": "IHNV (传染性造血器官坏死病病毒)", "assay": "Inhibition of IHNV in EPC cells (RT-qPCR of IHNV-G gene)", "type": "cell-based", "conditions": "50 μM, 0.1 MOI IHNV, 16 °C, 24 h, P<0.0001 vs control"}, "[9]": {"system": "IHNV (传染性造血器官坏死病病毒)", "assay": "Survival of IHNV-infected rainbow trout fed deoxycholic acid", "type": "in vivo", "conditions": "0.2 mg/fish per feeding, 7 days before injection of 10^4 PFU IHNV, 14 d observation, 16 °C; control 30%"}, "[10]": {"system": "IHNV (传染性造血器官坏死病病毒)", "assay": "Viral load in organs of IHNV-infected rainbow trout (IHNV-G quantification)", "type": "in vivo", "conditions": "5 d after IHNV infection, DCA 0.2 mg/fish fed"}, "[11]": {"system": "IHNV (传染性造血器官坏死病病毒)", "assay": "Histopathology (H&E) of organs of IHNV-infected rainbow trout", "type": "in vivo", "conditions": "rainbow trout liver, intestine, kidney, 5 d after IHNV infection, versus IHNV infection group"}, "[12]": {"system": "rainbow trout (虹鳟)", "assay": "Toxicity to rainbow trout by organ histology (H&E), uninfected", "type": "in vivo", "conditions": "DCA-fed (0.2 mg/fish), liver, intestine, kidney histology"}}, "data": [{"compound": "C[C@H](CCC(=O)O)[C@H]1CC[C@H]2[C@@H]3CC[C@@H]4C[C@H](O)CC[C@]4(C)[C@H]3C[C@H](O)[C@]12C", "note": "[去氧胆酸]", "values": [{"measurement": "inhibition at 1 µM", "setting": "[1]; 1 μM, P<0.01, read-out: decrease of SVCV-G gene expression relative to control", "value": 30.2, "unit": "%"}, {"measurement": "inhibition at 5 µM", "setting": "[1]; 5 μM, P<0.001, read-out: decrease of SVCV-G gene expression relative to control", "value": 49.2, "unit": "%"}, {"measurement": "inhibition at 10 µM", "setting": "[1]; 10 μM, P<0.001, read-out: decrease of SVCV-G gene expression relative to control", "value": 50.7, "unit": "%"}, {"measurement": "inhibition at 20 µM", "setting": "[1]; 20 μM, P<0.0001, read-out: decrease of SVCV-G gene expression relative to control", "value": 68, "unit": "%"}, {"measurement": "inhibition at 50 µM", "setting": "[1]; 50 μM, P<0.0001, read-out: decrease of SVCV-G gene expression relative to control", "value": 92, "unit": "%"}, {"measurement": "SVCV G protein expression compared with control", "setting": "[2]", "value": "依次降低"}, {"measurement": "SVCV detection in cell supernatant", "setting": "[3]", "value": "无法被检测到"}, {"measurement": "survival rate of SVCV-infected zebrafish", "setting": "[4]", "value": 66.67, "unit": "%"}, {"measurement": "viral load in intestine", "setting": "[5]; intestine", "value": "显著降低"}, {"measurement": "viral load in kidney", "setting": "[5]; kidney", "value": "显著降低"}, {"measurement": "viral load in liver", "setting": "[5]; liver", "value": "显著降低"}, {"measurement": "pathological damage caused by virus infection in organs", "setting": "[6]", "value": "明显减轻"}, {"measurement": "toxicity to zebrafish", "setting": "[7]", "value": "没有毒性"}, {"measurement": "IHNV viral load", "setting": "[8]", "value": "显著降低"}, {"measurement": "survival rate of IHNV-infected rainbow trout", "setting": "[9]", "value": 60, "unit": "%"}, {"measurement": "viral load in intestine", "setting": "[10]; intestine", "value": "显著降低"}, {"measurement": "viral load in kidney", "setting": "[10]; kidney", "value": "显著降低"}, {"measurement": "pathological damage caused by virus infection in organs", "setting": "[11]", "value": "明显减轻"}, {"measurement": "toxicity to rainbow trout", "setting": "[12]", "value": "没有毒性"}]}]}
